Data reported in publication PMC10714400, “Antimicrobial Peptide–Peptoid Hybrids with and without Membrane Disruption” (ACS Infectious Diseases, 2023).
In brackets after ≈: the same amount, converted by molar mass. Read-outs that look alike come from different tables or passages of the source. Where a SMILES comes first, the peptide text is derived from it. [ ]: non-standard residue; d: D form.

Key:
PA14 2P4 (pmrB) = conditions: Table S3; […] MH at pH 8.5
In short: (§1)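 Microdilution MIC in MH broth; inocula from overnight LB cultures at 37 °C, about 5 × 10^5 CFU per well. Plates stood ca. 18 h at 37 °C, then MTT (1 mg/mL) was added for 20–30 min at RT, and wells remaining yellow marked inhibition.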

PA14 4.13 (phoQ) = tested on: PA14 4.13 (phoQ)
In short: as §1

PA14 4.18 (pmrB) = tested on: PA14 4.18 (pmrB)
In short: as §1

S. aureus COL (MRSA) = tested on: S. aureus COL (MRSA)
In short: as §1

[1] = tested on: ZEM-1A (clinical MDR P. aeruginosa isolate)
In short: as §1

[2] = tested on: ZEM9A (clinical MDR P. aeruginosa isolate)
In short: as §1

[3] = tested on: human red blood cells (hRBC); assay: Minimum hemolytic concentration (MHC); assay type: cell-based
Source text: We also measured minimal hemolysis concentrations (MHC) on human red blood cells by serial 2-fold dilution as an indication of toxicity against eukaryotic cells (Table 1).

[4] = Circular dichroism, α-helical content; assay type: physicochemical; conditions: 0.1 mg/mL; for CD %α with 5 mM DPC: 10 mM phosphate buffer pH 7.4, 5 mM DPC; for CD %α with 20% TFE: 10 mM phosphate buffer pH 7.4, 20% TFE
B. cenocepacia = tested on: B. cenocepacia
In short: as §1

P. aeruginosa PA14 = tested on: P. aeruginosa PA14
In short: as §1

S. aureus Newman = tested on: S. aureus Newman
In short: as §1

S. epidermis = tested on: S. epidermis
In short: as §1

S. maltophilia = tested on: S. maltophilia
In short: as §1

In the case of CC(C)C[C@H](NC(=O)[C@H](CC(C)C)NC(=O)[C@H](CC(C)C)NC(=O)[C@@H](CCCCN)NC(=O)[C@H](CC(C)C)NC(=O)[C@H](CC(C)C)NC(=O)[C@@H](CCCCN)NC(=O)[C@H](CC(C)C)NC(=O)[C@H](CC(C)C)NC(=O)[C@@H](CCCCN)NC(=O)[C@H](N)CCCCN)C(N)=O [ln69, kkLLkLLkLLL, reference compound] (H-[dK][dK]LL[dK]LL[dK]LLL-NH2), the “MIC P. aeruginosa PA14 2P4” value (PA14 2P4 (pmrB)) is reported as 4 µg/mL (≈ 3.03 µM), the “MIC P. aeruginosa PA14 4.13, […] MH at pH 8.5” value (PA14 4.13 (phoQ); CSV, […] MH at pH 8.5) is reported as 3 ug/mL and the “MIC P. aeruginosa PA14 4.13, full MH at pH 7.4” value (PA14 4.13 (phoQ); CSV, full MH at pH 7.4) is reported as 4 ug/mL. The “MIC PA14 4.13 (phoQ)” value (PA14 4.13 (phoQ); MH pH 7.4, 16–20 h at 37 °C) was 4 µg/mL (≈ 3.03 µM), the “MIC P. aeruginosa PA14 4.13” value (PA14 4.13 (phoQ); Table S3, […] MH at pH 8.5) was 2 to 4 µg/mL and the “MIC P. aeruginosa PA14 4.18, […] MH at pH 8.5” value (PA14 4.18 (pmrB); CSV, […] MH at pH 8.5) was 4 ug/mL. The “MIC P. aeruginosa PA14 4.18, full MH at pH 7.4” value (PA14 4.18 (pmrB); CSV, full MH at pH 7.4) was 16 ug/mL, the “MIC PA14 4.18 (pmrB)” value (PA14 4.18 (pmrB); MH pH 7.4, 16–20 h at 37 °C) was 16 µg/mL (≈ 12.1 µM) and the “MIC P. aeruginosa PA14 4.18” value (PA14 4.18 (pmrB); Table S3, […] MH at pH 8.5) was 4 µg/mL (≈ 3.03 µM). The “MIC S. aureus COL (MRSA), […] MH at pH 7.4” value (S. aureus COL (MRSA); CSV, […] MH at pH 7.4) was 2 ug/mL, the “MIC S. aureus COL (MRSA), […] MH at pH 8.5” value (S. aureus COL (MRSA); CSV, […] MH at pH 8.5) was 2 ug/mL and the “MIC S. aureus COL (MRSA), full MH at pH 7.4” value (S. aureus COL (MRSA); CSV, full MH at pH 7.4) was 16 ug/mL. The “MIC S. aureus COL (MRSA), full MH at pH 8.5” value (S. aureus COL (MRSA); CSV, full MH at pH 8.5) was 16 ug/mL, the “MIC S. aureus COL (MRSA) […] 7.4” value (S. aureus COL (MRSA); Table S2, […] MH, pH 7.4) was 2 µg/mL (≈ 1.51 µM) and the “MIC S. aureus COL (MRSA) […] 8.5” value (S. aureus COL (MRSA); Table S2, […] MH, pH 8.5) was 2 µg/mL (≈ 1.51 µM). The “MIC S. aureus COL (MRSA) Full MH 7.4” value (S. aureus COL (MRSA); Table S2, full MH, pH 7.4) was 16 µg/mL (≈ 12.1 µM), the “MIC S. aureus COL (MRSA) Full MH 8.5” value (S. aureus COL (MRSA); Table S2, full MH, pH 8.5) was 16 µg/mL (≈ 12.1 µM) and the “MIC S. aureus COL (MRSA) […]” value (S. aureus COL (MRSA); diluted MH ([…] MH, pH 8.5) per Table 1 footnote b, 16–20 h at 37 °C) was 2 µg/mL (≈ 1.51 µM). The “MIC S. aureus COL (MRSA) Full” value (S. aureus COL (MRSA); full MH, pH 7.4, 16–20 h at 37 °C) was 16 µg/mL (≈ 12.1 µM), the “MIC P. aeruginosa ZEM-1A, […] MH at pH 8.5” value ([1]; CSV, […] MH at pH 8.5) was 2 ug/mL and the “MIC P. aeruginosa ZEM-1A, full MH at pH 7.4” value ([1]; CSV, full MH at pH 7.4) was 2 ug/mL. For the same compound, the “MIC P. aeruginosa ZEM-1A” value ([1]; Table S3, […] MH at pH 8.5) was 2 µg/mL (≈ 1.51 µM), the “MIC P. aeruginosa ZEM9A, […] MH at pH 8.5” value ([2]; CSV, […] MH at pH 8.5) was 2 ug/mL and the “MIC P. aeruginosa ZEM9A, full MH at pH 7.4” value ([2]; CSV, full MH at pH 7.4) was 6 ug/mL. The “MIC ZEM9A” value ([2]; MH pH 7.4, 16–20 h at 37 °C) was 4 to 8 µg/mL, the “MIC P. aeruginosa ZEM9A” value ([2]; Table S3, […] MH at pH 8.5) was 2 µg/mL (≈ 1.51 µM) and the MHC [3] was 1000 µg/mL. The “CD %α with 5 mM DPC” value ([4]; DichroWeb, Contin-LL) was 61%, the “CD %α with 20% TFE” value ([4]; DichroWeb, Contin-LL) was 34% and the “CD %α with 5 mM DPC” value ([4]; Table S2) was 61%. The “CD %α with 20% TFE” value ([4]; Table S2) was 34%, the “MIC B. cenocepacia, full MH at pH 7.4” value (B. cenocepacia; CSV, full MH at pH 7.4) was >32 ug/mL and the “MIC B. cenocepacia” value (B. cenocepacia; MH pH 7.4, 16–20 h at 37 °C) was >32 µg/mL. The “MIC P. aeruginosa PA14, […] MH at pH 8.5” value (P. aeruginosa PA14; CSV, […] MH at pH 8.5) was 3 ug/mL, the “MIC P. aeruginosa PA14, full MH at pH 7.4” value (P. aeruginosa PA14; CSV, full MH at pH 7.4) was 2 ug/mL and the “MIC P. aeruginosa PA14” value (P. aeruginosa PA14; MH pH 7.4, 16–20 h at 37 °C) was 2 µg/mL (≈ 1.51 µM). For the same compound, the “MIC P. aeruginosa PA14” value (P. aeruginosa PA14; Table S3, […] MH at pH 8.5, 16-20 hours at 37 °C) was 2 to 4 µg/mL, the “MIC S. aureus Newman, […] MH at pH 8.5” value (S. aureus Newman; CSV, […] MH at pH 8.5) was 3 ug/mL and the “MIC S. aureus Newman, full MH at pH 7.4” value (S. aureus Newman; CSV, full MH at pH 7.4) was 8 ug/mL. For the same compound, the “MIC S. aureus Newman” value (S. aureus Newman; MH pH 7.4, 16–20 h at 37 °C) was 8 µg/mL (≈ 6.05 µM), the “MIC S. aureus Newman” value (S. aureus Newman; Table S3, […] MH at pH 8.5) was 2 to 4 µg/mL and the “MIC S. epidermis, […] MH at pH 8.5” value (S. epidermis; CSV, […] MH at pH 8.5) was 1 ug/mL. The “MIC S. epidermis, full MH at pH 7.4” value (S. epidermis; CSV, full MH at pH 7.4) was 3 ug/mL, the “MIC S. epidermis” value (S. epidermis; MH pH 7.4, 16–20 h at 37 °C) was 2 to 4 µg/mL and the “MIC S. epidermis” value (S. epidermis; Table S3, […] MH at pH 8.5) was 1 µg/mL (≈ 0.757 µM). For the same compound, the “MIC S. maltophilia, […] MH at pH 8.5” value (S. maltophilia; CSV, […] MH at pH 8.5) was 2 ug/mL, the “MIC S. maltophilia, full MH at pH 7.4” value (S. maltophilia; CSV, full MH at pH 7.4) was 2 ug/mL and the “MIC S. maltophilia” value (S. maltophilia; MH pH 7.4, 16–20 h at 37 °C) was 2 µg/mL (≈ 1.51 µM). For the same compound, the “MIC S. maltophilia” value (S. maltophilia; Table S3, […] MH at pH 8.5) was 2 µg/mL (≈ 1.51 µM).
